Test results published in patent US8309557B2, “Pyrimidin-4-ylpropanedinitrile derivatives, processes for their preparation and their use as herbicides and plant growth regulators” (Bayer Intellectual Property GmbH, priority 2009, dated 2012).

Key:
Assay type in all cases: in vivo
[1] = test system: Polygonum (Fallopia) convolvulus; assay: Herbicidal effect post-emergence, POLCO
Method: (§1) Seeds of mono- and dicotyledonous weed plants and crop plants are planted in wood-fiber pots in sandy loam, covered with earth and grown in a greenhouse under good growth conditions. 2 to 3 weeks after sowing, the test plants are treated in the single-leaf stage. The compounds according to the invention, formulated in the form of wettable powders (WP) or as emulsion concentrates (EC), are then sprayed onto the green plant parts as aqueous suspension or emulsion using an application rate of 600 to 800 l of water/ha (converted) with the addition of 0.2% by weight of wetting agent. After the test plants had been in the greenhouse for ca. 3 weeks under optimum growth conditions, the effect of the preparations is scored visually in comparison with untreated controls (herbicidal effect in percent (%): 100% effect=plants have died off, 0% effect=as control plants).

Veronica persica [2] = assay: Herbicidal effect pre-emergence, VERPE; conditions: 320 g/hectare, visual grading after 3 weeks vs untreated controls
Excerpt: (§2) Seeds of mono- and dicotyledonous weed plants and crop plants are planted in wood-fiber pots in sandy loam and covered with earth. The compounds according to the invention, formulated in the form of wettable powders (WP) or as emulsion concentrates (EC), are then applied to the surface of the covering earth as aqueous suspension or emulsion at an application rate corresponding to 320 g/hectare at an application rate of 600 to 800 l of water/ha (converted) with the addition of 0.2% wetting agent.
(§3) Following treatment, the pots are placed in a greenhouse and kept under good growth conditions for the test plants. The visual grading of the damage to the test plants is carried out after a test time of 3 weeks in comparison to untreated controls (herbicidal effect in percent (%): 100% effect=plants have died off, 0% effect=as control plants).

Veronica persica [3] = assay: Herbicidal effect post-emergence, VERPE
Method: as §1

Abutilon theophrasti [4] = assay: Herbicidal effect post-emergence, ABUTH
Method: as §1

Polygonum convolvulus = assay: Herbicidal effect pre-emergence, POLCO; conditions: 320 g/hectare, visual grading after 3 weeks vs untreated controls
Excerpt: as §2, §3

Matricaria inodora = assay: Herbicidal effect post-emergence, MATIN
Method: as §1

Amaranthus retroflexus [5] = assay: Herbicidal effect post-emergence, AMARE
Method: as §1

Amaranthus retroflexus [6] = assay: Herbicidal effect pre-emergence, AMARE; conditions: for Effect in % in respect of stated plant, AMARE: 320 g/hectare, visual grading after 3 weeks vs untreated controls
Excerpt: as §2, §3

Echinochloa crus-galli [7] = assay: Herbicidal effect post-emergence, ECHCG
Method: as §1

Setaria viridis [8] = assay: Herbicidal effect post-emergence, SETVI
Method: as §1

[9] = test system: Tripleurospermum inodorum; assay: Herbicidal effect pre-emergence, MATIN; conditions: 320 g/hectare, visual grading after 3 weeks vs untreated controls
Excerpt: as §2, §3

Ipomoea purpurea [10] = assay: Herbicidal effect post-emergence, PHBPU
Method: as §1

Lolium multiflorum = assay: Herbicidal effect pre-emergence, LOLMU; conditions: for Effect in % in respect of stated plant, LOLMU: 320 g/hectare, visual grading after 3 weeks vs untreated controls
Excerpt: as §2, §3

Setaria viridis [11] = assay: Herbicidal effect pre-emergence, SETVI; conditions: for Effect in % in respect of stated plant, SETVI: 320 g/hectare, visual grading after 3 weeks vs untreated controls
Excerpt: as §2, §3

Abutilon theophrasti [12] = assay: Herbicidal effect pre-emergence, ABUTH; conditions: for Effect in % in respect of stated plant, ABUTH: 320 g/hectare, visual grading after 3 weeks vs untreated controls
Excerpt: as §2, §3

Stellaria media [13] = assay: Herbicidal effect post-emergence, STEME
Method: as §1

Alopecurus myosuroides = assay: Herbicidal effect pre-emergence, ALOMY
Excerpt: as §2, §3

Viola tricolor [14] = assay: Herbicidal effect post-emergence, VIOTR
Method: as §1

Ipomoea purpurea [15] = assay: Herbicidal effect pre-emergence, PHBPU; conditions: 320 g/hectare, visual grading after 3 weeks vs untreated controls
Excerpt: as §2, §3

Viola tricolor [16] = assay: Herbicidal effect pre-emergence, VIOTR; conditions: 320 g/hectare, visual grading after 3 weeks vs untreated controls
Excerpt: as §2, §3

Echinochloa crus-galli [17] = assay: Herbicidal effect pre-emergence, ECHCG; conditions: 0.32 kg of active substance per hectare, visual grading after 3 weeks
Excerpt: as §2, §3

Avena fatua = assay: Herbicidal effect pre-emergence, Avena fatua; conditions: 0.32 kg of active substance per hectare, visual grading after 3 weeks
Excerpt: as §2, §3

Stellaria media [18] = assay: Herbicidal effect pre-emergence, STEME; conditions: 0.32 kg of active substance per hectare, visual grading after 3 weeks
Excerpt: as §2, §3

Sinapis alba = assay: Herbicidal effect pre-emergence, Sinapis alba; conditions: 0.32 kg of active substance per hectare, visual grading after 3 weeks
Excerpt: as §2, §3

[19] = 0.32 kg of active substance per hectare, visual grading after 3 weeks

| SMILES | Effect in % in respect of stated plant, POLCO [1] | Effect in % in respect of stated plant, VERPE (Veronica persica [2]) | Effect in % in respect of stated plant, VERPE (Veronica persica [3]) | Effect in % in respect of stated plant, ABUTH (Abutilon theophrasti [4]) | Effect in % in respect of stated plant, POLCO (Polygonum convolvulus) | Effect in % in respect of stated plant, MATIN (Matricaria inodora) | Effect in % in respect of stated plant, AMARE (Amaranthus retroflexus [5]) | Effect in % in respect of stated plant, AMARE (Amaranthus retroflexus [6]) | Effect in % in respect of stated plant, ECHCG (Echinochloa crus-galli [7]) | Effect in % in respect of stated plant, MATIN [9] | Effect in % in respect of stated plant, PHBPU (Ipomoea purpurea [10]) | Effect in % in respect of stated plant, ABUTH (Abutilon theophrasti [12]) | Effect in % in respect of stated plant, STEME (Stellaria media [13]) | Effect in % in respect of stated plant, PHBPU (Ipomoea purpurea [15]) | Effect in % in respect of stated plant, VIOTR (Viola tricolor [16]) | other results |
| --- | --- | --- | --- | --- | --- | --- | --- | --- | --- | --- | --- | --- | --- | --- | --- | --- |
| N.N#CC(C#N)c1nc(-c2ccc(C(F)(F)F)cc2)nc(N)c1Cl [Compound 318] | 80% | 100% | 90% | 80% | 80% | 90% |  |  |  |  |  |  |  |  |  |  |
| COc1c(Cl)ccc(-c2nc(N)c(Cl)c(C(C#N)C#N)n2)c1F.N [Compound 359] | 90% | 100% |  | 80% |  | 90% | 100% | 100% | 90% | 100% | 80% | 90% |  |  |  | Effect in % in respect of stated plant, SETVI (Setaria viridis [8]): 80%; Effect in % in respect of stated plant, LOLMU (Lolium multiflorum): 80%; Effect in % in respect of stated plant, SETVI (Setaria viridis [11]): 90% |
| N.N#CC(C#N)c1nc(-c2ccc(Cl)cc2)nc(N)c1Cl [Ex. No. 308, Ammonium [6-amino-5-chloro-2-(4-chlorophenyl)pyrimidin-4-yl](dicyano)methanide] | 100% | 100% | 97% | 93% | 90% | 93% | 100% | 100% | 88% | 90% | 90% | 80% | 92% | 95% | 100% | Effect in % in respect of stated plant, ALOMY (Alopecurus myosuroides; 320 g/hectare, visual grading after 3 weeks vs untreated controls): 80%; Effect in % in respect of stated plant, SETVI (Setaria viridis [8]): 87%; Effect in % in respect of stated plant, VIOTR (Viola tricolor [14]): 88%; Effect in % in respect of stated plant, SETVI (Setaria viridis [11]): 90% |
| N#CC(C#N)c1nc(-c2ccc([N+](=O)[O-])cc2)nc(N)c1Cl [compound 9] |  | 80% |  |  |  |  |  |  |  |  |  |  |  |  | 90% | herbicidal effect (Amaranthus retroflexus [6]; [19]): very good herbicidal effect; herbicidal effect (Echinochloa crus-galli [17]): very good herbicidal effect; herbicidal effect (Alopecurus myosuroides; [19]): very good herbicidal effect; herbicidal effect (Avena fatua): very good herbicidal effect; herbicidal effect (Stellaria media [18]): very good herbicidal effect; herbicidal effect (Sinapis alba): very good herbicidal effect; herbicidal effect (Lolium multiflorum; [19]): very good herbicidal effect; herbicidal effect (Setaria viridis [11]; [19]): very good herbicidal effect; herbicidal effect (Abutilon theophrasti [12]; [19]): very good herbicidal effect |
| Cc1ccc(-c2nc(N)c(Cl)c(C(C#N)C#N)n2)c(F)c1F [compound 202] | 90% | 100% |  | 90% |  | 80% | 100% | 90% | 90% |  |  |  |  | 100% |  |  |
| N#CC(C#N)c1nc(C2CC2)nc(N)c1F [compound 248] |  | 90% | 90% |  |  | 80% | 80% |  |  | 80% |  |  | 80% | 80% |  |  |
| N#CC(C#N)c1nc(C2CC2)nc(N)c1Cl [compound 249] | 90% | 90% | 100% | 83% | 90% | 90% | 93% | 90% | 90% | 90% | 90% | 90% | 80% | 85% | 95% | Effect in % in respect of stated plant, VIOTR (Viola tricolor [14]): 87% |
| CC(C)(C)c1nc(N)c(Cl)c(C(C#N)C#N)n1.N [compound 455] |  |  |  |  |  |  |  |  |  |  |  |  |  |  | 100% | Effect in % in respect of stated plant, LOLMU (Lolium multiflorum): 80% |
